These results are taken from US12378248B2 (The United States of America, as represented by the …, priority 2018, dated 2025).

The nature of series [1]: Stability in simulated gastric fluid. Format: physicochemical. Conditions: pH 1.60, 37° C., after 120 min.
The next series relates to mice. Description: Tail suspension test, immobility time. The class given is in vivo, mouse. The protocol: 1 hour after administration of compounds, the mice were individually suspended by their tails for 6 minutes, and the average amount of time the mice were immobile was determined. […]

The target of series [2] is dopamine transporter (DAT) (Homo sapiens, UniProt Q01959). The series can be described thus: Off-target interaction determined by the PDSP. Format: binding. Conditions: read-out: Off-target, receptor (h, unless noted) (Ki, μM): DAT.
A further series concerns the target T1, hA2AAR (Homo sapiens, UniProt P29274).
T1 construct: expressed in transfected cells; host or cells: HEK293
Description: Radioligand binding in membranes of HEK293 cells expressing hA2AAR. Conditions: read-out: A2AAR % inhibition; for Ki: (h), values without % sign (Ki).

For series [3], the target named is norepinephrine transporter (NET) (Homo sapiens, UniProt P23975). Description: Off-target interaction determined by the PDSP. Format: binding. Conditions: read-out: Off-target, receptor (h, unless noted) (Ki, μM): NET.
The target in series [4] is T2, mA3AR (Mus musculus, UniProt Q61618).
T2 sequence (Q61618 1-319): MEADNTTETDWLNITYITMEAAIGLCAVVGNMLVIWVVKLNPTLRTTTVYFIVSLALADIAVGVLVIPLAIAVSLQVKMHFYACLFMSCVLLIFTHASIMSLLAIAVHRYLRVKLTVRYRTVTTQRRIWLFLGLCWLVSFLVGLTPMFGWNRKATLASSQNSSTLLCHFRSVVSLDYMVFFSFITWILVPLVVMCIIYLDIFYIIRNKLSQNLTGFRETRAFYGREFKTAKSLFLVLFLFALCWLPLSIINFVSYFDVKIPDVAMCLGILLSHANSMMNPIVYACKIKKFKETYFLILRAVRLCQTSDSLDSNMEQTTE
The series can be described thus: Adenosine receptor binding, mA3AR. The settings on record: (m); Ki; read-out: A3AR % inhibition or Ki (converted).

The next series addresses T3, hA1AR (Homo sapiens, UniProt P30542).
T3 construct: expressed in transfected cells; host or cells: CHO
T3 sequence (P30542 1-326): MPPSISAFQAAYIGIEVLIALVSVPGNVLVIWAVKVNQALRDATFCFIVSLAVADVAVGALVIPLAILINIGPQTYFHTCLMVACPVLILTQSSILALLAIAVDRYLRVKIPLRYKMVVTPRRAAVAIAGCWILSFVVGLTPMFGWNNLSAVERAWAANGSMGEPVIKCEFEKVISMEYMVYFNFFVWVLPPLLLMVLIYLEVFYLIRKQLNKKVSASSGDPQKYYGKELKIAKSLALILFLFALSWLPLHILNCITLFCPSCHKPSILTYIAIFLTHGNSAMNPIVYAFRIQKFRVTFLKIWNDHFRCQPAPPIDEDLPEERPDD
Description: Radioligand binding in membranes of CHO cells expressing hA1AR, [3H]N6-R-phenylisopropyladenosine. Conditions: (h); Ki; read-out: A1AR % inhibition or Ki.

Series [5] deals with wild-type C57BL/6J mice. The series can be described thus: Locomotor activity by telemetry after ip dosing. Format: in vivo, mouse. Conditions: 3 mg/kg ip; average from dosing to 60 min; mean±SD. Here is the method: (§1) Compounds were dosed ip. Tb and activity were measured by telemetry and the averages from dosing to 60 min were calculated. […] Data are for the highest dose used and are mean±SD from 3 to 22 mice/group (usually 5-7). P values are unpaired t-Test vs vehicle-treated controls assayed simultaneously. Vehicle data are mean±SD from all (n=83) vehicle treated mice.

Series [6] concerns wild-type C57BL/6J mice. Description: Hypothermia (Tb by telemetry) after ip dosing. Format: in vivo, mouse. Conditions: 3 mg/kg ip; average from dosing to 60 min; mean±SD. Here is the method: as §1
Series [7] is described as follows: Plasma protein binding at 10 μM. The class given is in vitro ADME, human. The settings on record: unbound percent ± standard deviation. Here is the method:
(§2) Plasma protein binding in human plasma, mouse plasma, and rat plasma was determined. Verapamil and warfarin served as positive controls. The results are expressed as unbound percent±standard deviation.

The nature of series [8]: Plasma protein binding at 10 μM. The class given is in vitro ADME, mouse. The settings on record: unbound percent ± standard deviation. Here is the method: as §2
A further series addresses mA2AAR (Mus musculus, UniProt Q60613). The series can be described thus: Adenosine receptor binding, mA2AAR. The settings on record: read-out: A2AAR % inhibition (converted).
A further series has as its target T4, hA3AR (Homo sapiens, UniProt P0DMS8).
T4 construct: expressed in transfected cells; host or cells: CHO
T4 sequence (P0DMS8 1-318): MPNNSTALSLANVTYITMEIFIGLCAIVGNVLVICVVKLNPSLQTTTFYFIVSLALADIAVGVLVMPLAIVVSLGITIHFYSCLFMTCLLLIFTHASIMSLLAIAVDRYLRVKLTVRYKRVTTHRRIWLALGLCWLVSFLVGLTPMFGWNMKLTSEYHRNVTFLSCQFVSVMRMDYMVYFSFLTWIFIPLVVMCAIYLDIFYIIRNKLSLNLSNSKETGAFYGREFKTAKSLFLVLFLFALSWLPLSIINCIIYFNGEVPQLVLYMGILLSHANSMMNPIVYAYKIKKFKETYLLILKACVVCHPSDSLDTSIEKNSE
The series can be described thus: Radioligand binding in membranes of CHO cells expressing hA3AR.

For series [9], the target named is T5, mA1AR (Mus musculus, UniProt Q60612).
T5 sequence (Q60612 1-326): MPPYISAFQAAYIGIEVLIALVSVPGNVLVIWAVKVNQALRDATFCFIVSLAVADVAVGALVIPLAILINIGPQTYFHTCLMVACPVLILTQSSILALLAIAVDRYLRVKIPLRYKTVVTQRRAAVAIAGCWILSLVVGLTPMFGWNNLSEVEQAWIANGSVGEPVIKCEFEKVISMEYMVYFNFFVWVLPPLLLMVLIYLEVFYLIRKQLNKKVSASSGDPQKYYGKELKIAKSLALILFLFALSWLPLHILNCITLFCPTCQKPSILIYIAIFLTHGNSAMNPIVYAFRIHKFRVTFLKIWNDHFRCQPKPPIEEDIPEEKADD
Description: Adenosine receptor binding, mA1AR. Conditions: for Ki: (m), read-out: A1AR % inhibition or Ki (converted); for Binding selectivity for mA1AR: compared to mA3AR.

Series [10] concerns off-target receptors (PDSP). Description: Off-target interactions determined by the PDSP, whole screen. Format: binding, human. The settings on record: no off-target interaction listed.
Series [11] concerns the target T5, mA1AR. Description: Guanine nucleotide ([35S]GTPγS) binding assay. Format: biochemical. The protocol:
(§3) cLogP was calculated using ChemDraw Professional, v. 16.0. Binding selectivity for mA1Ar is expressed in terms of fold, compared to mA3AR (Data from Table 1).

For series [12], the target named is T2, mA3AR. Description: Guanine nucleotide ([35S]GTPγS) binding assay. Conditions: effect of 10 μM test compound as % of 10 μM 16. Format: biochemical. Here is the method: as §3
Series [13] is described as follows: Plasma protein binding at 10 μM. Conditions: unbound percent ± standard deviation. The class given is in vitro ADME, rat. Here is the method: as §2
A further series concerns the target sigma receptor σ2 (UniProt Q5BJF2). Description: Off-target interaction determined by the PDSP. The class given is binding, human. The settings on record: read-out: Off-target, receptor (h, unless noted) (Ki, μM): σ2.
The target in the next series is histamine receptor H1 (Homo sapiens, UniProt P35367). Description: Off-target interaction determined by the PDSP. The class given is binding. The settings on record: read-out: Off-target, receptor (h, unless noted) (Ki, μM): H1.
Another series concerns the target rA3AR (Rattus norvegicus, UniProt P28647). The series can be described thus: Adenosine receptor binding, rA3AR. Conditions: (r), read-out: A3AR % inhibition or Ki (converted).
Another series deals with rA2AAR (Rattus norvegicus, UniProt P30543). Description: Adenosine receptor binding, rA2AAR. The settings on record: (r); values without % sign (Ki); read-out: A2AAR % inhibition (converted).
In a further series the target is T6, rA1AR (Rattus norvegicus, UniProt P25099).
T6 sequence (P25099 1-326): T5 sequence (Q60612 1-326) with E151V, A155D, I157R, E316D, I319L, D325E
Description: Adenosine receptor binding, rA1AR. Conditions: (r), read-out: A1AR % inhibition or Ki (converted).

The mark [14] stands for this setting: (h), Ki, read-out: A3AR % inhibition or Ki.
Where [15] appears, read: 0.3 mg/kg i.p., 1 hour after administration, 6 min suspension.

Substitutions are numbered along the chain they refer to. Where two headings read alike, the source gives them in different places.

T1 sequence (P29274 whole entry): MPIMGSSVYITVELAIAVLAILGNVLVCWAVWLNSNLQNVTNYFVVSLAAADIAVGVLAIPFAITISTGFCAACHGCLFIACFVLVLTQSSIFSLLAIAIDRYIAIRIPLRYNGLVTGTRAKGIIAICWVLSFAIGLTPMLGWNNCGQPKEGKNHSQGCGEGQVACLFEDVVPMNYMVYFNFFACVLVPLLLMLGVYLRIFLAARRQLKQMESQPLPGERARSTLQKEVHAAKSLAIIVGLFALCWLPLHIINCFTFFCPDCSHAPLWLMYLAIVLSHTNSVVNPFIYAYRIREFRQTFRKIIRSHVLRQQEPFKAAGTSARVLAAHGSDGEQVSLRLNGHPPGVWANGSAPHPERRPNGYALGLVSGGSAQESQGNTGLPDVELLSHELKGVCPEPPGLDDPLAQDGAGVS
rA2AAR, sequence (P30543 whole entry): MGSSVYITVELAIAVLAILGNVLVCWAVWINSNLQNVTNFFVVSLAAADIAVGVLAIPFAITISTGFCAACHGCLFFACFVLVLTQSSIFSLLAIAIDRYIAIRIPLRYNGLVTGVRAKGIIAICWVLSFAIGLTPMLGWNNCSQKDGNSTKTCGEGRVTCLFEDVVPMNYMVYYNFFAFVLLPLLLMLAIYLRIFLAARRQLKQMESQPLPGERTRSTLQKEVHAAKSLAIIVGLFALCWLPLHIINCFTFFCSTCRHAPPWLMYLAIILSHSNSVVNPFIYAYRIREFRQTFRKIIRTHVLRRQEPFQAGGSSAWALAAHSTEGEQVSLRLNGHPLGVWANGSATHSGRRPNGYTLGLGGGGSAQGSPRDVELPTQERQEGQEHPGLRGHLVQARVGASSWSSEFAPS
norepinephrine transporter (NET), sequence (P23975 whole entry): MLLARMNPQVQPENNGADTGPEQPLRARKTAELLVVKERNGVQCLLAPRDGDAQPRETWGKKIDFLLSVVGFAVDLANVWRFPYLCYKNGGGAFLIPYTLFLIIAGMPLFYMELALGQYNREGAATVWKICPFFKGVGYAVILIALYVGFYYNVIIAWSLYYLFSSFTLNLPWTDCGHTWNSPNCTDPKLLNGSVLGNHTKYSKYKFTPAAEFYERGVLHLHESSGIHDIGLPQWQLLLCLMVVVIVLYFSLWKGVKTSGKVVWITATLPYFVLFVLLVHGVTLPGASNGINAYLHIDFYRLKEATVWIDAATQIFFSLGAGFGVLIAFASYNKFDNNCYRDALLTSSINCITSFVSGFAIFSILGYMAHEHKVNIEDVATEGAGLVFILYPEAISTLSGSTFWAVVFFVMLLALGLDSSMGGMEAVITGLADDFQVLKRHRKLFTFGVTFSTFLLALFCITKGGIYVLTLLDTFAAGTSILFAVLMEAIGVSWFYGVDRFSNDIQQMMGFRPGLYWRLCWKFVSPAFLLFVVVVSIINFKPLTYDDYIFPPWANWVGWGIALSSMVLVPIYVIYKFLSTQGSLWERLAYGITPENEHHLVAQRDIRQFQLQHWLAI
histamine receptor H1, sequence (P35367 whole entry): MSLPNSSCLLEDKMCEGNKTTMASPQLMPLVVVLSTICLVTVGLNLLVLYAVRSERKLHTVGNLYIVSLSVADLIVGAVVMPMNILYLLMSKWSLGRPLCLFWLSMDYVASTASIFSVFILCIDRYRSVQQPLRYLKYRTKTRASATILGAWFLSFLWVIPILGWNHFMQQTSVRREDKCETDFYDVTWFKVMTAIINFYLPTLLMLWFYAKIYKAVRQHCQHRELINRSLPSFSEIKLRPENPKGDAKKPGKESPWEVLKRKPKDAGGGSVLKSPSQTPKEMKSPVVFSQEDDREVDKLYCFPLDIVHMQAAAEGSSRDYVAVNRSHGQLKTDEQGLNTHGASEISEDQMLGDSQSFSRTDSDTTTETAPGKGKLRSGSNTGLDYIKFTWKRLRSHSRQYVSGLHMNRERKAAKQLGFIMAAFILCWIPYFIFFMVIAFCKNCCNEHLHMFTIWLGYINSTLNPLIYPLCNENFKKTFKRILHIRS
rA3AR, sequence (P28647 whole entry): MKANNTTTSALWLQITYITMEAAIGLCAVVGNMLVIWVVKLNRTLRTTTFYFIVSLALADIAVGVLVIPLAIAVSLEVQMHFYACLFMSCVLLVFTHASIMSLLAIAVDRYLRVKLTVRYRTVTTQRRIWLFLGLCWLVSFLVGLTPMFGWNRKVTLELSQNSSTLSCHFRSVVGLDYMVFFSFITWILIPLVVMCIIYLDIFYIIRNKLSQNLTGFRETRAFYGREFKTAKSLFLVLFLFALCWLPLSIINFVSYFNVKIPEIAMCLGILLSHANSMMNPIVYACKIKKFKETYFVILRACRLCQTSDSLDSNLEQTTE
mA2AAR, sequence (Q60613 whole entry): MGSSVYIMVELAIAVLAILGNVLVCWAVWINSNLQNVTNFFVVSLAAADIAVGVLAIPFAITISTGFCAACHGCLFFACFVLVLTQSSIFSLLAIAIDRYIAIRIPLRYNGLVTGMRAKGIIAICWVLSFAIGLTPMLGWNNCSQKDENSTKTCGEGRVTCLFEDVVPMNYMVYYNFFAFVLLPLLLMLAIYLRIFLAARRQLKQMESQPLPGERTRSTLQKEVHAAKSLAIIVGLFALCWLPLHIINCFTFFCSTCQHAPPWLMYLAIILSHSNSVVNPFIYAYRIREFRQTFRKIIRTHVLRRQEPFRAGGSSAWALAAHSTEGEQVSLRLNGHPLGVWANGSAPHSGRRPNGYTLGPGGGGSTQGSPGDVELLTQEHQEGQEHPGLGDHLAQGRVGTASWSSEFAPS
dopamine transporter (DAT), sequence (Q01959 whole entry): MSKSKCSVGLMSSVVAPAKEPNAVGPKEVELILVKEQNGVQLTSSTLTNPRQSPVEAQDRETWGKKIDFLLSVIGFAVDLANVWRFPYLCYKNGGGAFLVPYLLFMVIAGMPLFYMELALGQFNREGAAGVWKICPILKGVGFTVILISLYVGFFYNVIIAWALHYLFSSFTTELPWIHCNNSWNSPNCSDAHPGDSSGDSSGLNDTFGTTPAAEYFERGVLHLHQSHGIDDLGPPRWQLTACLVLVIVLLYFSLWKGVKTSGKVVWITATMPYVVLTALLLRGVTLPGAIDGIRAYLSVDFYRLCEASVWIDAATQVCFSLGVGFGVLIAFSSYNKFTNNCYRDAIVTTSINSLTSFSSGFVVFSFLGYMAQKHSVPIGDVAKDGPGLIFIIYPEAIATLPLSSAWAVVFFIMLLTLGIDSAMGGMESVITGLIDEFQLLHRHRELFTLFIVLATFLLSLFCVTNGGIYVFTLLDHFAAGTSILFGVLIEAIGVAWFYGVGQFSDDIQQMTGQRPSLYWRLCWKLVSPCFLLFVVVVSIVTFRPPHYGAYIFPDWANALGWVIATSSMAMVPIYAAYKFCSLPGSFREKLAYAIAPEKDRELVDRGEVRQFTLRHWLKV

Take `O[C@@H]1[C@H](O)[C@@H]2C[C@@H]2[C@H]1n1cnc2c(NC(C3CC3)C3CC3)nc(Cl)nc21` [MRS5474, reference compound]: in series [1], the “initial amount present in simulated gastric fluid” value was 51%. Further, the “average immobility times versus the control group of mice” value in the series on mice (3, 10 or 20 mg/kg i.p., 1 hour after administration) is given as “lower than the average immobility times exhibited by the control group of mice”. The “average immobility times versus mice treated with fluoxetine” value with mice (3, 10 or 20 mg/kg i.p., fluoxetine 10 mg/kg) is given as “approximately twice longer”.
`OC[C@H]1O[C@@H](n2cnc3c(NC(C4CCC4)C4CCC4)ncnc32)[C@H](O)[C@@H]1O` [Compound 9, (2R,3R,4R,5R)-2-(6-((Dicyclobutylmethyl)amino)-9H-purin-9-yl)-5-(hydroxymethyl)tetrahydrofuran-3,4-diol]: the Ki is 1.78 µM in series [2]; 3550 ± 440 nM at hA2AAR; 4.82 µM in series [3]; 897 nM at mA3AR [4]; 2.14 ± 0.52 nM on hA1AR.
`O[C@H]1[C@H](n2cnc3c(N[C@H]4C[C@H]5CC[C@@H]4C5)nc(Cl)nc32)[C@H]2C[C@@]2(CCl)[C@H]1O` [Compound 31, (1S,2R,3S,4R,5S)-4-(6-(((1R,2S,4S)-Bicyclo[2.2.1]heptan-2-yl)amino)-2-chloro-9H-purin-9-yl)-1-(chloromethyl)bicyclo[3.1.0]hexane-2,3-diol]: the “Activity (counts)” value in the series with wild-type C57BL/6J mice [5] is reported as 16.8 ± 3.6 counts. Further, the inhibition at 10 µM was 54 ± 8% on hA2AAR and 15% at mA2AAR. Besides, the “Tb (° C.)” value with wild-type C57BL/6J mice [6] is 36.6 ± 0.5 °C. Besides, in [7], the “human, % free” value was determined as 4.04 ± 0.60%. Besides, the “mouse, % free” value in series [8] was determined as 2.95 ± 0.84%. Besides, the Ki was 456 ± 201 nM at hA3AR (setting [14]), 1.86 nM on mA1AR [9], 503 nM on mA3AR [4] and 44.8 ± 1.3 nM on hA1AR. Also, the “Binding selectivity for mA1AR” value at mA1AR [9] was “(270) fold”. Further, in series [10], the “Off-target, receptor (h, unless noted)” value is listed as “none”. Besides, the Emax at 10 µM stood at 123 ± 16% on mA1AR [11] and 50 ± 11% at mA3AR [12]. Moreover, the “rat, % free” value in series [13] is given as 2.53 ± 0.45%.
As to `Nc1ncnc2c1ncn2[C@@H]1O[C@H](C(=O)NC2CC2)[C@@H](O)[C@H]1O` [Compound 17, reference compound], the Ki on hA2AAR is 50 ± 10 nM; at hA3AR (setting [14]), 180 ± 50 nM; at sigma receptor σ2, 4.35 µM; on hA1AR, 1.9 nM; on histamine receptor H1, 7.88 µM.
As to `O[C@@H]1[C@H](O)[C@@H](CCl)O[C@H]1n1cnc2c(NC3CC4CCC3C4)ncnc21` (some centres unmarked) [Compound 3, reference compound], the Ki on hA2AAR is > 10000 nM; at rA3AR, 282 nM; at hA3AR it was 915 ± 299 nM; on rA2AAR, 477 nM; at mA1AR [9] it was 0.14 nM; at mA3AR [4], 424 nM. Also, on rA1AR, the Ki is 0.34 nM.
`OC[C@H]1O[C@@H](n2cnc3c(NC(C4CCC4)C4CCC4)nc(Cl)nc32)[C@H](O)C1O` (stereo in doubt) [Compound 12, (2R,3R,4R,5R)-2-(2-Chloro-6-((dicyclobutylmethyl)amino)-9H-purin-9-yl)-5-(hydroxymethyl)tetrahydrofuran-3,4-diol]: the “Activity (counts)” value in the series with wild-type C57BL/6J mice [5] is 13.5 ± 3.5 counts. The “Tb (° C.)” value with wild-type C57BL/6J mice [6] amounted to 35.5 ± 0.8 °C. In series [7], the “human, % free” value came to 5.81 ± 0.39%. Also, the “mouse, % free” value in [8] amounted to 4.74 ± 0.67%. Further, in [1], the “initial amount present in simulated gastric fluid” value is 100%. For the same compound, the “Binding selectivity for mA1AR” value on mA1AR [9] is “(1000) fold”. In the series with mice (setting [15]), the “average immobility time relative to mice treated with 10 mg/kg of fluoxetine” value is recorded as “approximately ⅔” and the “average immobility time relative to the control group of mice” value is recorded as “approximately ½”. For the same compound, the Emax at 10 µM at mA1AR [11] came to 90 ± 19%. At mA3AR [12], the Emax at 10 µM worked out at 63 ± 5%. The “rat, % free” value in series [13] turned out to be 4.64 ± 0.06%.
As for `OC[C@H]1O[C@@H](n2cnc3c(NC(C4CC4)C4CC4)ncnc32)[C@H](O)[C@@H]1O` [Compound 8], the Ki at hA2AAR is 1470 ± 380 nM; at hA3AR, 41.3 ± 5.3 nM; at rA2AAR, 1370 nM; at hA1AR, 0.85 ± 0.27 nM.
